According to the NIST ThermoML archive (doi:10.1021/je500594z):

Test: xn = mol fraction of the nth substance listed
Details: 101 kPa, Liquid; for viscosity: Falling or rolling sphere viscometry; for speed of sound: Sing-around technique in a fixed-path interferometer; for mass density: Vibrating tube method

CCCCCC[n+]1ccn(C)c1.O=S(=O)([N-]S(=O)(=O)C(F)(F)F)C(F)(F)F + CCO
Details | mass density [kg/m3] | speed of sound [m/s] | viscosity [mPa·s]
278.15 K, x1 = 0.047 | 933.23 | 1208.7 | 2.69
278.15 K, x1 = 0.097 | 1026.67 | 1211.4 | 4.32
278.15 K, x1 = 0.198 | 1146.24 | 1222.7 | 9.53
278.15 K, x1 = 0.292 | 1215.04 | 1233.9 | 16.27
278.15 K, x1 = 0.39 | 1263.14 | 1242.8 | 25.73
278.15 K, x1 = 0.47 | 1292.55 | 1250.3 | 35.73
278.15 K, x1 = 0.596 | 1327.21 | 1258.1 | 56.91
278.15 K, x1 = 0.694 | 1347.34 | 1262.6 | 79.17
278.15 K, x1 = 0.799 | 1364.86 | 1267.2 | 112.54
278.15 K, x1 = 0.903 | 1379.2 | 1271.2 | 154.54
278.15 K, x1 = 1 | 1390.3 | 1274.6 | 211.31
298.15 K, x1 = 0.047 | 915.22 | 1145.7 | 1.73
298.15 K, x1 = 0.097 | 1008.17 | 1152.5 | 2.61
298.15 K, x1 = 0.198 | 1127.27 | 1168.4 | 4.98
298.15 K, x1 = 0.292 | 1195.96 | 1181.9 | 7.97
298.15 K, x1 = 0.39 | 1244.05 | 1192.3 | 12.1
298.15 K, x1 = 0.47 | 1273.5 | 1200.6 | 15.94
298.15 K, x1 = 0.596 | 1308.27 | 1209.2 | 23.72
298.15 K, x1 = 0.694 | 1328.48 | 1214.1 | 31.3
298.15 K, x1 = 0.799 | 1346.07 | 1218.9 | 41.44
298.15 K, x1 = 0.903 | 1360.48 | 1223.1 | 53.7
298.15 K, x1 = 1 | 1371.64 | 1226.8 | 70.46
318.15 K, x1 = 0.047 | 896.92 | 1085 | 1.18
318.15 K, x1 = 0.097 | 989.44 | 1095.9 | 1.71
318.15 K, x1 = 0.198 | 1108.22 | 1116.3 | 3.05
318.15 K, x1 = 0.292 | 1176.89 | 1131.9 | 4.64
318.15 K, x1 = 0.39 | 1225.05 | 1143.8 | 6.7
318.15 K, x1 = 0.47 | 1254.61 | 1153 | 8.61
318.15 K, x1 = 0.596 | 1289.55 | 1162.6 | 12.33
318.15 K, x1 = 0.694 | 1309.88 | 1168 | 15.72
318.15 K, x1 = 0.799 | 1327.59 | 1173.4 | 20.13
318.15 K, x1 = 0.903 | 1342.08 | 1178 | 24.94
318.15 K, x1 = 1 | 1353.31 | 1182 | 30.22
338.15 K, x1 = 0.047 | 878.04 | 1025.6 | –
338.15 K, x1 = 0.097 | 970.28 | 1040.6 | –
338.15 K, x1 = 0.198 | 1088.96 | 1065.5 | –
338.15 K, x1 = 0.292 | 1157.75 | 1083.5 | –
338.15 K, x1 = 0.39 | 1206.1 | 1097 | –
338.15 K, x1 = 0.47 | 1235.83 | 1107.2 | –
338.15 K, x1 = 0.596 | 1271.01 | 1118 | –
338.15 K, x1 = 0.694 | 1291.5 | 1124 | –
338.15 K, x1 = 0.799 | 1309.35 | 1130 | –
338.15 K, x1 = 0.903 | 1323.94 | 1135.2 | –
338.15 K, x1 = 1 | 1335.25 | 1139.3 | –

CCCC[n+]1ccn(C)c1.O=S(=O)([N-]S(=O)(=O)C(F)(F)F)C(F)(F)F + CCO
Details | mass density [kg/m3] | speed of sound [m/s] | viscosity [mPa·s]
278.15 K, x1 = 0.049 | 939.65 | 1204.6 | 2.64
278.15 K, x1 = 0.096 | 1032.42 | 1204.5 | 3.8
278.15 K, x1 = 0.194 | 1162.65 | 1213.9 | 7.4
278.15 K, x1 = 0.288 | 1241.69 | 1225.4 | 12.59
278.15 K, x1 = 0.39 | 1300.98 | 1237.1 | 18.82
278.15 K, x1 = 0.484 | 1340.75 | 1245.5 | 26.93
278.15 K, x1 = 0.591 | 1375.63 | 1253.5 | 38
278.15 K, x1 = 0.696 | 1401.82 | 1260 | 52.96
278.15 K, x1 = 0.818 | 1426.17 | 1266.3 | 77.99
278.15 K, x1 = 0.9 | 1439.65 | 1269.8 | 99.43
278.15 K, x1 = 1 | 1453.69 | 1273.8 | 139.82
298.15 K, x1 = 0.049 | 921.49 | 1142.4 | 1.71
298.15 K, x1 = 0.096 | 1013.65 | 1146.4 | 2.35
298.15 K, x1 = 0.194 | 1143.26 | 1160.7 | 4.13
298.15 K, x1 = 0.288 | 1222.07 | 1174.6 | 6.64
298.15 K, x1 = 0.39 | 1281.27 | 1188 | 9.5
298.15 K, x1 = 0.484 | 1321.04 | 1197.4 | 12.92
298.15 K, x1 = 0.591 | 1355.98 | 1206.2 | 17.3
298.15 K, x1 = 0.696 | 1382.23 | 1213.2 | 22.86
298.15 K, x1 = 0.818 | 1406.65 | 1219.8 | 31.21
298.15 K, x1 = 0.9 | 1420.19 | 1223.6 | 38.05
298.15 K, x1 = 1 | 1434.23 | 1227.5 | 51.22
318.15 K, x1 = 0.049 | 903.02 | 1082 | 1.18
318.15 K, x1 = 0.096 | 994.64 | 1090 | 1.57
318.15 K, x1 = 0.194 | 1123.77 | 1109.1 | 2.61
318.15 K, x1 = 0.288 | 1202.45 | 1125.5 | 3.95
318.15 K, x1 = 0.39 | 1261.65 | 1140.5 | 5.62
318.15 K, x1 = 0.484 | 1301.51 | 1150.8 | 7.52
318.15 K, x1 = 0.591 | 1336.54 | 1160.7 | 9.76
318.15 K, x1 = 0.696 | 1362.91 | 1168.3 | 12.42
318.15 K, x1 = 0.818 | 1387.44 | 1175.6 | 16.16
318.15 K, x1 = 0.9 | 1401.04 | 1179.7 | 19.03
318.15 K, x1 = 1 | 1415.13 | 1184 | 24.36
338.15 K, x1 = 0.049 | 883.95 | 1022.5 | 0.85
338.15 K, x1 = 0.096 | 975.18 | 1034.5 | 1.12
338.15 K, x1 = 0.194 | 1104.04 | 1058.5 | 1.79
338.15 K, x1 = 0.288 | 1182.73 | 1077.4 | 2.71
338.15 K, x1 = 0.39 | 1242.06 | 1094.2 | 3.7
338.15 K, x1 = 0.484 | 1282.08 | 1105.8 | 4.86
338.15 K, x1 = 0.591 | 1317.28 | 1116.5 | 6.26
338.15 K, x1 = 0.696 | 1343.8 | 1124.9 | 7.79
338.15 K, x1 = 0.818 | 1368.47 | 1133 | 9.83
338.15 K, x1 = 0.9 | 1382.15 | 1137.6 | 11.28
338.15 K, x1 = 1 | 1396.35 | 1142.7 | 13.94

CCn1cc[n+](C)c1.O=S(=O)([N-]S(=O)(=O)C(F)(F)F)C(F)(F)F + CCO
Details | mass density [kg/m3] | speed of sound [m/s] | viscosity [mPa·s]
278.15 K, x1 = 0.051 | 946.21 | 1201.4 | 2.42
278.15 K, x1 = 0.102 | 1052.67 | 1199.9 | 3.44
278.15 K, x1 = 0.198 | 1191.39 | 1210.6 | 5.9
278.15 K, x1 = 0.292 | 1281.48 | 1224.4 | 8.91
278.15 K, x1 = 0.402 | 1356.04 | 1239.1 | 13.41
278.15 K, x1 = 0.501 | 1405.04 | 1250.3 | 18.24
278.15 K, x1 = 0.619 | 1449.8 | 1261.2 | 25.83
278.15 K, x1 = 0.71 | 1476.96 | 1268.1 | 33.19
278.15 K, x1 = 0.811 | 1502.1 | 1274.8 | 43.83
278.15 K, x1 = 0.907 | 1521.68 | 1280 | 56.33
278.15 K, x1 = 1 | 1538.23 | 1284.9 | 75.08
298.15 K, x1 = 0.051 | 927.85 | 1139.3 | 1.57
298.15 K, x1 = 0.102 | 1033.54 | 1142.6 | 2.16
298.15 K, x1 = 0.198 | 1171.44 | 1158.2 | 3.47
298.15 K, x1 = 0.292 | 1261.14 | 1174.5 | 5.02
298.15 K, x1 = 0.402 | 1335.52 | 1190.9 | 7.16
298.15 K, x1 = 0.501 | 1384.32 | 1203 | 9.66
298.15 K, x1 = 0.619 | 1429.22 | 1214.6 | 13.22
298.15 K, x1 = 0.71 | 1456.41 | 1222 | 16.41
298.15 K, x1 = 0.811 | 1481.59 | 1229 | 20.91
298.15 K, x1 = 0.907 | 1501.19 | 1234.4 | 25.67
298.15 K, x1 = 1 | 1517.76 | 1240.1 | 32.02
318.15 K, x1 = 0.051 | 909.21 | 1079.4 | 1.09
318.15 K, x1 = 0.102 | 1014.18 | 1087.3 | 1.46
318.15 K, x1 = 0.198 | 1151.39 | 1107.7 | 2.27
318.15 K, x1 = 0.292 | 1240.83 | 1126.5 | 3.21
318.15 K, x1 = 0.402 | 1315.11 | 1144.5 | 4.59
318.15 K, x1 = 0.501 | 1363.99 | 1157.6 | 5.85
318.15 K, x1 = 0.619 | 1408.9 | 1170 | 7.84
318.15 K, x1 = 0.71 | 1436.15 | 1177.9 | 9.67
318.15 K, x1 = 0.811 | 1461.4 | 1185.3 | 11.96
318.15 K, x1 = 0.907 | 1481.05 | 1191.2 | 14.35
318.15 K, x1 = 1 | 1497.65 | 1196.6 | 17.32
338.15 K, x1 = 0.051 | 889.98 | 1020.7 | 0.79
338.15 K, x1 = 0.102 | 994.4 | 1033.2 | 1.05
338.15 K, x1 = 0.198 | 1131.14 | 1058.3 | 1.6
338.15 K, x1 = 0.292 | 1220.47 | 1079.7 | 2.23
338.15 K, x1 = 0.402 | 1294.8 | 1099.7 | 3.16
338.15 K, x1 = 0.501 | 1343.74 | 1113.9 | 3.99
338.15 K, x1 = 0.619 | 1388.81 | 1127.3 | 5.23
338.15 K, x1 = 0.71 | 1416.16 | 1135.6 | 6.35
338.15 K, x1 = 0.811 | 1441.5 | 1143.7 | 7.7
338.15 K, x1 = 0.907 | 1461.23 | 1150 | 9.11
338.15 K, x1 = 1 | 1477.86 | 1155.8 | 10.82
